Reference: patent publication US20100003228A1, “T-CELL VACCINE” (priority 2006, published 2010)

Tests used:
Assay type in all cases: cell-based, human
[1] = test system: T cell receptor variable beta chain usage (Vβ); experiment: TCR V beta analysis of peptide-stimulated T cell line by flow cytometry; settings: Day 9 to Day 16 in culture, FIG. 10
Protocol: Enrichment of T cell subsets was evaluated by analyzing the T cell receptor variable beta chain usage (Vβ). The 24 different known beta chain variable (Vβ) region families were evaluated using specific fluorescent-labeled monoclonal antibodies and flow cytometry. If a particular subset of T cells is selectively expanded by stimulation with a peptide, an increase would be detected in the percentage of cells expressing one of the V beta families as that subset expands.
[…] A T cell line was produced by stimulating the patient's PBMCs with peptide mix MBPm10, which had produced an SI of 4.6 in the original EAA for this patient. […] This mix was used to stimulate PBMCs from this patient in culture.

[2] = test system: myelin reactive T cells in PBMCs; experiment: EAA with positivity by Variance Evaluation Method or CPM Variance Method (clinical trials); settings: clinical trial population, RR-MS or CIS subjects
Excerpt: The predetermined value may also be calculated using a Variance Evaluation Method as follows: • 1. EAAs may be run on a given patient population (minimum of 120 assays from 120 unique subjects) • 2. A “negative population” may be created by averaging all SI values<2.5 • 3. The Standard Deviation (SD) may be calculated for each peptide • 4. The following for each peptide may be then be calculated: • a. Average+1SD • b. Average+2SD • c. Average+3SD • 5. The following SIs may be considered above the predetermined value: • a. SI greater than or equal to the average+3SD • b. Any SI greater than or equal to 2.5
The predetermined value may also be evaluated using a Counts per Minute (CPM) Variance Method. This algorithm may set a comprehensive cutoff for all peptides within a given assay. It may be calculated as follows: • 1. EAAs may be run and the CPM for all control (media only, no antigen) wells averaged. • 2. The SD for CPM of the control wells may then be calculated. • 3. The following may then be calculated for the control wells: • a. Average+1SD • b. Average+2SD • c. Average+3SD • 4. Any peptide with an average CPM greater than or equal to the average+3SD of the control wells may be considered above the predetermined value.
Any peptide, either analyzed in an individual well or as averaged over wells run in triplicate, with an SI≧2.5, an SI≧average+3SD by the Variance Evaluation Method, or an SI≧average+3SD by the CPM variance method may be considered above the predetermined value, which may indicate a T cell(s) positive for reactivity to a peptide.
The peptides of Example 3 have been tested in 429 EAAs in clinical trials as follows. […] Pre-Vaccine EAAs have 158 positive out of 387 assays (40.8%), with Relapse Remitting MS patients (RRMS) showing 150 positive of 368 assays (40.8%), and Clinically Isolated Syndrome (CIS) patients showing 8 positive of 19 assays (42.1%).
Over the course of 6 months a study was conducted with 120 subjects meeting the criteria for the clinical trial.
The above mentioned population of subjects was evaluated by EAA using the Variance Evaluation Method and CPM Variance Method as described above, and deemed eligible for vaccine production. Of the 120 attempts to manufacture vaccine, there were 2 shipping failures (blood was not received within our stated criteria), 1 culture was lost to contamination and 5 samples arrived with low cell volume/yield. Of the remaining 112 subjects, vaccine was successfully generated in 89 subjects, with 22 still in production (98.9% of eligible samples, 92.5% of all samples completed). From this, a positive EAA was deemed predictive of the ability to manufacture a vaccine to therapeutic dose by methods disclosed herein.

PBMCs / T cells = experiment: Growth analysis of T cell lines stimulated with EAA-selected peptide mixes; settings: from 15 million PBMCs, in 20 days, 3 stimulations
Protocol: Patient-specific peptides identified by EAA were tested to determine whether they could be used to produce and expand myelin-reactive T-cells for use in a vaccine. A 500 ml bag of blood was obtained from the patient to set up vaccine production cultures. Bulk cultures were set up in AIM V medium along with the optimized peptides. After 48 hours of incubation, rIL-2 was added at 20 U/ml. Seven days later, the cultures were re-stimulated with PBMCs and peptide. The media was changed to 2% AB serum with 100 U/ml rIL2 in X Vivo 15 medium. The cultures were fed and split every 1-4 days as necessary. After an additional seven days, the cultures were once again stimulated with APCs and peptides. The cultures were continued to be fed and split every 1-4 days as necessary. After an additional 7-14 days, the cultures had expanded to at least 100×10^6 cells. The cells were divided into aliquots of 10×10^6 cells and frozen.
The ability of stimulation with the EAA-selected peptides to more rapidly expand the stimulated the T cells were tested. The cell growth curves were analyzed for two different stimulatory peptide mixes. The EAA CPM data shown in FIG. 8 show a strongly reactive mix in MBPm19 for a patient with an SI of 4.7. […] These two peptides mixes were then used to stimulate PBMCs from this patient to produce T cell lines. […]

[3] = test system: myelin reactive T cells in PBMCs; experiment: Epitope Analysis Assay (EAA): PBMC stimulation with myelin peptide mixes, tritiated thymidine incorporation, SI of at least 3 positive; settings: patient of Example 8, FIG. 8
Protocol: The SI may be calculated by comparing [^3H] thymidine incorporation of the sample in the presence of a peptide comprising a portion of an MRTC polypeptide target to that in the presence of a media only control. Briefly, separate aliquots of the sample are plated and incubated in the presence of either a peptide comprising a portion of the polypeptide or a media only control in order to stimulate reactive T cells. The cultures are pulsed with [^3H] thymidine during the last 6-18 hours of incubation. The SI is calculated as the quotient of the mean counts per minute (cpm) of the antigen aliquots/mean cpm of the control aliquots. The SI of autoreactive T cells may be increased by at least a factor of 1.3, 1.4, 1.5, 1.6, 1.7, 1.8, 1.9, 2.0, 2.1, 2.2, 2.3, 2.4, 2.5, 2.6, 2.7. 2.8, 2.9, 3.0, 3.1, 3.2, 3.3, 3.4, 3.5, 3.6, 3.7, 3.8, 3.9, or 4.0 compared to a control.
The peptides in Example 2 were tested in an in vitro PBMC stimulation assay to identify myelin reactive T cells in a patient's blood. Peripheral blood mononuclear cells (PBMCs) were separated from whole blood, washed, counted and plated at 250,000 cells per well in a total of four 96-well plates. Myelin peptide mixes of two overlapping 16-mer peptides were added to triplicate wells of PBMCs with triplicate media only control wells included on each plate and then incubated. After two days of incubation, 20 U/ml of interleukin-2 (IL-2) was added. On the fifth day, the plates were labeled with a radioisotope (tritiated thymidine) and harvested 6 hours later. In this assay, the cells that incorporate tritiated thymidine are representative of T cells being activated and induced to proliferate by the T cell receptor-peptide-MHC complexes. T cells incorporating comparatively more tritiated thymidine than control and experimental cells are more highly activated T cells and are proliferating more rapidly.
Stimulation Indices (SI) were determined for each peptide mix by dividing the mean radiolabel counts per minute (CPM) of the peptide stimulated wells by the mean CPM of the media only control wells averaged across all four plates. An SI of at least 3 was considered positive. FIG. 1 is an example of EAA from one MS patient. Seven of the peptide mixtures were slightly reactive, with the MOGm15 stimulated wells being very reactive. FIGS. 2-4 show the frequency of reactivity to the peptide mixes in 48 patients.

| Substance | TCR V beta focusing [1] | # of Subjects (frequency of identification) [2] | % of Subjects (frequency of identification) [2] | T cells after expansion (PBMCs / T cells) | Stimulation Index (SI) [3] |
| --- | --- | --- | --- | --- | --- |
| PLPm27: mix of PLP 53 and PLP 54 (chain 1 VLPWNAFPGKVCGSNL; chain 2 NAFPGKVCGSNLLSIC) | V beta chain 5-5 is expanding | 6 | 5.0% |  |  |
| PLPm33: mix of PLP 65 and PLP 66 (chain 1 FMIAATYNFAVLKLMG; chain 2 ATYNFAVLKLMGRGTK) |  | 11 | 9.2% | 200 million T cells | 17.9 |
